Consider 17 compounds from ChEMBL document CHEMBL5500377, “Design, synthesis and molecular modeling of novel D-ring substituted steroidal 4,5-dihydropyrazole thiazolinone derivatives as anti-inflammatory agents by inhibition of COX-2/iNOS production and down-regulation of NF-κB/MAPKs in LPS-induced RAW264.7 macrophage cells” (Eur J Med Chem, 2024).

One may read the IC50 as the midpoint of a concentration-inhibition curve. The inhibition is the percentage by which the read-out fell short of the control.

For data set [1], the system named is RAW264.7. As to the kind of experiment: Anti-inflammatory activity against mouse RAW264.7 cells assessed as inhibition of LPS-induced NO production measured after 24 hrs incubation by Griess assay. It is filed as functional, cell-based. Conditions: RAW264.7, 24 h. (Nitrite, measured by Griess reagent, commonly stands in for NO production.)
The subject of data set [2] is RAW264.7. Kind of data set: Anti-inflammatory activity against mouse RAW264.7 cells assessed as inhibition of LPS-induced TNFalpha level pretreated for 1 hr followed by induced with LPS measured after 24 hrs by ELISA. It is filed as functional, cell-based. Conditions: dose 2.5-20 µM, time 25.0 hrs.
The test system of data set [3] is RAW264.7. Kind of data set: Anti-inflammatory activity against mouse RAW264.7 cells assessed as inhibition of LPS-induced COX2 level pretreated for 1 hr followed by induced with LPS measured after 24 hrs by ELISA. The format is functional, cell-based. The settings on record: dose 2.5-20 µM, time 25.0 hrs. Background: In an ELISA, binding on a coated surface is turned into a signal by an enzyme label.

A short description of data set [4]: Cytotoxicity against mouse RAW264.7 cells assessed as cell viability at 5 uM measured after 24 hrs incubation by MTT assay relative to control. Conditions: read-out: Activity. It is filed as toxicity, cell-based. Background: Tetrazolium dyes change colour on reduction, which living cells bring about.
Data set [5] has as its system RAW264.7. Kind of data set: Anti-inflammatory activity against mouse RAW264.7 cells assessed as inhibition of LPS-induced NO production at 5 uM measured after 24 hrs incubation by Griess assay relative to control. It is filed as functional.

Each structure is given as a SMILES string.

Consider `C[C@@H]1C[C@H]2[C@@H]3CCC4=CC(=O)C=C[C@]4(C)[C@@]3(F)[C@@H](O)C[C@]2(C)[C@@]1(O)C(=O)CO` [DEXAMETHASONE], for which the IC50 with RAW264.7 [1] was 3.8 µM. Further, the inhibition result with RAW264.7 [2] and with RAW264.7 [3] was “Dose-Dependent Effect” each time. In addition, in data set [4], the viability at 24 h, 5 µM stood at 92%. For the same compound, the inhibition at 5 µM in the data set on RAW264.7 [5] came to 42.3%.

In the case of `Cc1ccc(C2CC([C@H]3CC[C@H]4[C@@H]5CC=C6C[C@@H](O)CC[C@]6(C)[C@H]5CC[C@]34C)=NN2C2=NC(=O)CS2)cc1` (stereo not given in full), the viability at 24 h, 5 µM in data set [4] was determined as 88.5%. For the same compound, in the data set on RAW264.7 [5], the inhibition at 5 µM is 35.4%.

For the compound `C[C@]12CC[C@H]3[C@@H](CC=C4C[C@@H](O)CC[C@@]43C)[C@@H]1CC[C@@H]2C1=NN(C2=NC(=O)CS2)C(c2ccc(S(C)(=O)=O)cc2)C1` (stereo not given in full), the viability at 24 h, 5 µM in data set [4] turned out to be 74.5%. In addition, in the data set on RAW264.7 [5], the inhibition at 5 µM came out at 47.3%.

`CCOc1ccc(C2CC([C@H]3CC[C@H]4[C@@H]5CC=C6C[C@@H](O)CC[C@]6(C)[C@H]5CC[C@]34C)=NN2C2=NC(=O)CS2)cc1` (stereo not given in full): in the data set with RAW264.7 [1], the IC50 turned out to be 2.36 µM. In addition, the inhibition result in the data set with RAW264.7 [2] and in the data set with RAW264.7 [3] was “Dose-Dependent Effect” each time. Moreover, the viability at 24 h, 5 µM in data set [4] was determined as 87.7%. The inhibition at 5 µM with RAW264.7 [5] was 47.8%.

As to `C[C@]12CC[C@H]3[C@@H](CC=C4C[C@@H](O)CC[C@@]43C)[C@@H]1CC[C@@H]2C1=NN(C2=NC(=O)CS2)C(c2ccccc2Cl)C1` (stereo not given in full), the IC50 in the data set on RAW264.7 [1] amounted to 12.2 µM. In addition, in data set [4], the viability at 24 h, 5 µM stood at 81.1%. In addition, in the data set with RAW264.7 [5], the inhibition at 5 µM was 52.6%.

Take `CCc1ccc(C2CC([C@H]3CC[C@H]4[C@@H]5CC=C6C[C@@H](O)CC[C@]6(C)[C@H]5CC[C@]34C)=NN2C2=NC(=O)CS2)cc1` (stereo not given in full): the viability at 24 h, 5 µM in data set [4] is 82.8%. The inhibition at 5 µM in the data set with RAW264.7 [5] was determined as 39.9%.

`COc1ccc(C2CC([C@H]3CC[C@H]4[C@@H]5CC=C6C[C@@H](O)CC[C@]6(C)[C@H]5CC[C@]34C)=NN2C2=NC(=O)CS2)cc1` (stereo not given in full): the viability at 24 h, 5 µM in data set [4] was determined as 95.9%. The inhibition at 5 µM in the data set with RAW264.7 [5] was determined as 30.7%.

In the case of `COc1ccccc1C1CC([C@H]2CC[C@H]3[C@@H]4CC=C5C[C@@H](O)CC[C@]5(C)[C@H]4CC[C@]23C)=NN1C1=NC(=O)CS1` (stereo not given in full), the viability at 24 h, 5 µM in data set [4] is 70%. Besides, in the data set with RAW264.7 [5], the inhibition at 5 µM was determined as 55.5%.

In the case of `C[C@]12CC[C@H]3[C@@H](CC=C4C[C@@H](O)CC[C@@]43C)[C@@H]1CC[C@@H]2C1=NN(C2=NC(=O)CS2)C(c2ccc(F)cc2)C1` (stereo not given in full), the IC50 in the data set with RAW264.7 [1] is 4.24 µM. In addition, in data set [4], the viability at 24 h, 5 µM was found to be 90.9%. Also, in the data set on RAW264.7 [5], the inhibition at 5 µM worked out at 44.7%.

For `C[C@]12CC[C@H]3[C@@H](CC=C4C[C@@H](O)CC[C@@]43C)[C@@H]1CC[C@@H]2C1=NN(C2=NC(=O)CS2)C(c2ccc(Cl)cc2)C1` (stereo not given in full), the IC50 in the data set with RAW264.7 [1] turned out to be 4.07 µM. The viability at 24 h, 5 µM in data set [4] was 85.1%. Moreover, the inhibition at 5 µM in the data set on RAW264.7 [5] is 46.3%.

Turning to `C[C@]12CC[C@H]3[C@@H](CC=C4C[C@@H](O)CC[C@@]43C)[C@@H]1CC[C@@H]2C1=NN(C2=NC(=O)CS2)C(c2ccc(C#N)cc2)C1` (stereo not given in full), the IC50 with RAW264.7 [1] came to 6.89 µM. Besides, the viability at 24 h, 5 µM in data set [4] was 93.4%. Further, the inhibition at 5 µM in the data set on RAW264.7 [5] came to 48.8%.

Regarding `C[C@]12CC[C@H]3[C@@H](CC=C4C[C@@H](O)CC[C@@]43C)[C@@H]1CC[C@@H]2C1=NN(C2=NC(=O)CS2)C(c2ccccc2F)C1` (stereo not given in full), the IC50 in the data set with RAW264.7 [1] was 5.41 µM. Besides, the viability at 24 h, 5 µM in data set [4] is 86.4%. Also, the inhibition at 5 µM with RAW264.7 [5] was determined as 46.8%.

For `C[C@]12CC[C@H]3[C@@H](CC=C4C[C@@H](O)CC[C@@]43C)[C@@H]1CC[C@@H]2C1=NN(C2=NC(=O)CS2)C(c2ccc(Br)cc2)C1` (stereo not given in full), the IC50 with RAW264.7 [1] stood at 2.27 µM. Also, the inhibition result in the data set with RAW264.7 [2] and in the data set with RAW264.7 [3] was “Dose-Dependent Effect” in each case. For the same compound, the viability at 24 h, 5 µM in data set [4] was determined as 85.5%. For the same compound, in the data set with RAW264.7 [5], the inhibition at 5 µM stood at 45.4%.

For the compound `CSc1ccc(C2CC([C@H]3CC[C@H]4[C@@H]5CC=C6C[C@@H](O)CC[C@]6(C)[C@H]5CC[C@]34C)=NN2C2=NC(=O)CS2)cc1` (stereo not given in full), the viability at 24 h, 5 µM in data set [4] came to 82.2%. Besides, in the data set with RAW264.7 [5], the inhibition at 5 µM was found to be 45.2%.

`C[C@]12CC[C@H]3[C@@H](CC=C4C[C@@H](O)CC[C@@]43C)[C@@H]1CC[C@@H]2C1=NN(C2=NC(=O)CS2)C(c2ccccc2OCc2ccccc2)C1` (stereo not given in full): in data set [4], the viability at 24 h, 5 µM came out at 69%. Moreover, in the data set with RAW264.7 [5], the inhibition at 5 µM was determined as 48.2%.

Take `Cc1cccc(C2CC([C@H]3CC[C@H]4[C@@H]5CC=C6C[C@@H](O)CC[C@]6(C)[C@H]5CC[C@]34C)=NN2C2=NC(=O)CS2)c1` (stereo not given in full): in the data set with RAW264.7 [1], the IC50 amounted to 2.9 µM. Further, the viability at 24 h, 5 µM in data set [4] turned out to be 75.9%. In addition, the inhibition at 5 µM with RAW264.7 [5] came out at 51.9%.

Regarding `C[C@]12CC[C@H]3[C@@H](CC=C4C[C@@H](O)CC[C@@]43C)[C@@H]1CC[C@@H]2C1=NN(C2=NC(=O)CS2)C(c2cccc(Cl)c2)C1` (stereo not given in full), the IC50 in the data set with RAW264.7 [1] is 5.14 µM. Moreover, the viability at 24 h, 5 µM in data set [4] turned out to be 73.3%. Further, the inhibition at 5 µM in the data set on RAW264.7 [5] came to 50.7%.
